According to US12637424B2, “Pharmaceutical salt of an arylpyrrole derivative” (SENTINEL ONCOLOGY LIMITED, priority 2020, dated 2026):

Key:
Experiment in all cases: DiscoverX KinomeScreen competition binding assay (kinase selectivity panel)
[1] = molecular target: T1, panel of ninety-seven kinases (Homo sapiens, UniProt O00750); conditions: PIK3C2B; screened at 3000 nM
T1 construct: purchased DiscoverX; host or cells: E. coli (BL21-derived, T7 phage display) or HEK-293
Outline: (§1)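 Kinases on T7 phage (BL21-derived E. coli host) or DNA-tagged from HEK-293 cells compete between compound and a bead-immobilized biotinylated ligand. Captured kinase is eluted and quantified by qPCR. Compound is tested at 3000 nM (3 μM); binding is reported as % Ctrl, with DMSO as 100% and control compound as 0%.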

[2] = molecular target: T2, panel of ninety-seven kinases (Homo sapiens, UniProt O60674); conditions: JAK2; screened at 3000 nM
T2 construct: purchased DiscoverX; host or cells: E. coli (BL21-derived, T7 phage display) or HEK-293
Outline: as §1

[3] = molecular target: T3, panel of ninety-seven kinases (Homo sapiens, UniProt O96013); conditions: PAK4; screened at 3000 nM
T3 construct: purchased DiscoverX; host or cells: E. coli (BL21-derived, T7 phage display) or HEK-293
Outline: as §1

[4] = molecular target: T4, panel of ninety-seven kinases (Homo sapiens, UniProt P04626); conditions: ERBB2; screened at 3000 nM
T4 construct: purchased DiscoverX; host or cells: E. coli (BL21-derived, T7 phage display) or HEK-293
Outline: as §1

[5] = molecular target: T5, panel of ninety-seven kinases (Homo sapiens, UniProt P06213); conditions: INSR; screened at 3000 nM
T5 construct: purchased DiscoverX; host or cells: E. coli (BL21-derived, T7 phage display) or HEK-293
Outline: as §1

[6] = molecular target: T6, panel of ninety-seven kinases (Homo sapiens, UniProt P08069); conditions: IGF1R; screened at 3000 nM
T6 construct: purchased DiscoverX; host or cells: E. coli (BL21-derived, T7 phage display) or HEK-293
Outline: as §1

[7] = molecular target: T7, panel of ninety-seven kinases (Homo sapiens, UniProt P09619); conditions: PDGFRB; screened at 3000 nM
T7 construct: purchased DiscoverX; host or cells: E. coli (BL21-derived, T7 phage display) or HEK-293
Outline: as §1

[8] = molecular target: T8, panel of ninety-seven kinases (Homo sapiens, UniProt P12931); conditions: SRC; screened at 3000 nM
T8 construct: purchased DiscoverX; host or cells: E. coli (BL21-derived, T7 phage display) or HEK-293
Outline: as §1

[9] = molecular target: T9, panel of ninety-seven kinases (Homo sapiens, UniProt P22607); conditions: FGFR3; screened at 3000 nM
T9 construct: purchased DiscoverX; host or cells: E. coli (BL21-derived, T7 phage display) or HEK-293
Outline: as §1

[10] = molecular target: T10, panel of ninety-seven kinases (Homo sapiens, UniProt P29597); conditions: TYK2; screened at 3000 nM
T10 construct: purchased DiscoverX; host or cells: E. coli (BL21-derived, T7 phage display) or HEK-293
Outline: as §1

[11] = molecular target: T11, panel of ninety-seven kinases (Homo sapiens, UniProt P31751); conditions: AKT2; screened at 3000 nM
T11 construct: purchased DiscoverX; host or cells: E. coli (BL21-derived, T7 phage display) or HEK-293
Outline: as §1

[12] = molecular target: T12, panel of ninety-seven kinases (Homo sapiens, UniProt P42336); conditions: PIK3CA; screened at 3000 nM
T12 construct: purchased DiscoverX; host or cells: E. coli (BL21-derived, T7 phage display) or HEK-293
Outline: as §1

[13] = molecular target: T13, panel of ninety-seven kinases (Homo sapiens, UniProt P49841); conditions: GSK3B; screened at 3000 nM
T13 construct: purchased DiscoverX; host or cells: E. coli (BL21-derived, T7 phage display) or HEK-293
Outline: as §1

[14] = molecular target: T14, panel of ninety-seven kinases (Homo sapiens, UniProt P53779); conditions: MAPK10; screened at 3000 nM
T14 construct: purchased DiscoverX; host or cells: E. coli (BL21-derived, T7 phage display) or HEK-293
Outline: as §1

[15] = molecular target: T15, panel of ninety-seven kinases (Homo sapiens, UniProt Q02750); conditions: MAP2K1; screened at 3000 nM
T15 construct: purchased DiscoverX; host or cells: E. coli (BL21-derived, T7 phage display) or HEK-293
Outline: as §1

[16] = molecular target: T16, panel of ninety-seven kinases (Homo sapiens, UniProt Q06187); conditions: BTK; screened at 3000 nM
T16 construct: purchased DiscoverX; host or cells: E. coli (BL21-derived, T7 phage display) or HEK-293
Outline: as §1

[17] = molecular target: T17, panel of ninety-seven kinases (Homo sapiens, UniProt Q13873); conditions: BMPR2; screened at 3000 nM
T17 construct: purchased DiscoverX; host or cells: E. coli (BL21-derived, T7 phage display) or HEK-293
Outline: as §1

[18] = molecular target: T18, panel of ninety-seven kinases (Homo sapiens, UniProt Q86V86); conditions: PIM3; screened at 3000 nM
T18 construct: purchased DiscoverX; host or cells: E. coli (BL21-derived, T7 phage display) or HEK-293
Outline: as §1

[19] = molecular target: T19, panel of ninety-seven kinases (Homo sapiens, UniProt Q9BVS4); conditions: RIOK2; screened at 3000 nM
T19 construct: purchased DiscoverX; host or cells: E. coli (BL21-derived, T7 phage display) or HEK-293
Outline: as §1

[20] = molecular target: T20, panel of ninety-seven kinases (Homo sapiens, UniProt Q9H093); conditions: NUAK2; screened at 3000 nM
T20 construct: purchased DiscoverX; host or cells: E. coli (BL21-derived, T7 phage display) or HEK-293
Outline: as §1

[21] = test system: panel of ninety-seven kinases; conditions: for % Ctrl @ 3 μM: screened at 3000 nM
Outline: as §1

T1 sequence (O00750 whole entry): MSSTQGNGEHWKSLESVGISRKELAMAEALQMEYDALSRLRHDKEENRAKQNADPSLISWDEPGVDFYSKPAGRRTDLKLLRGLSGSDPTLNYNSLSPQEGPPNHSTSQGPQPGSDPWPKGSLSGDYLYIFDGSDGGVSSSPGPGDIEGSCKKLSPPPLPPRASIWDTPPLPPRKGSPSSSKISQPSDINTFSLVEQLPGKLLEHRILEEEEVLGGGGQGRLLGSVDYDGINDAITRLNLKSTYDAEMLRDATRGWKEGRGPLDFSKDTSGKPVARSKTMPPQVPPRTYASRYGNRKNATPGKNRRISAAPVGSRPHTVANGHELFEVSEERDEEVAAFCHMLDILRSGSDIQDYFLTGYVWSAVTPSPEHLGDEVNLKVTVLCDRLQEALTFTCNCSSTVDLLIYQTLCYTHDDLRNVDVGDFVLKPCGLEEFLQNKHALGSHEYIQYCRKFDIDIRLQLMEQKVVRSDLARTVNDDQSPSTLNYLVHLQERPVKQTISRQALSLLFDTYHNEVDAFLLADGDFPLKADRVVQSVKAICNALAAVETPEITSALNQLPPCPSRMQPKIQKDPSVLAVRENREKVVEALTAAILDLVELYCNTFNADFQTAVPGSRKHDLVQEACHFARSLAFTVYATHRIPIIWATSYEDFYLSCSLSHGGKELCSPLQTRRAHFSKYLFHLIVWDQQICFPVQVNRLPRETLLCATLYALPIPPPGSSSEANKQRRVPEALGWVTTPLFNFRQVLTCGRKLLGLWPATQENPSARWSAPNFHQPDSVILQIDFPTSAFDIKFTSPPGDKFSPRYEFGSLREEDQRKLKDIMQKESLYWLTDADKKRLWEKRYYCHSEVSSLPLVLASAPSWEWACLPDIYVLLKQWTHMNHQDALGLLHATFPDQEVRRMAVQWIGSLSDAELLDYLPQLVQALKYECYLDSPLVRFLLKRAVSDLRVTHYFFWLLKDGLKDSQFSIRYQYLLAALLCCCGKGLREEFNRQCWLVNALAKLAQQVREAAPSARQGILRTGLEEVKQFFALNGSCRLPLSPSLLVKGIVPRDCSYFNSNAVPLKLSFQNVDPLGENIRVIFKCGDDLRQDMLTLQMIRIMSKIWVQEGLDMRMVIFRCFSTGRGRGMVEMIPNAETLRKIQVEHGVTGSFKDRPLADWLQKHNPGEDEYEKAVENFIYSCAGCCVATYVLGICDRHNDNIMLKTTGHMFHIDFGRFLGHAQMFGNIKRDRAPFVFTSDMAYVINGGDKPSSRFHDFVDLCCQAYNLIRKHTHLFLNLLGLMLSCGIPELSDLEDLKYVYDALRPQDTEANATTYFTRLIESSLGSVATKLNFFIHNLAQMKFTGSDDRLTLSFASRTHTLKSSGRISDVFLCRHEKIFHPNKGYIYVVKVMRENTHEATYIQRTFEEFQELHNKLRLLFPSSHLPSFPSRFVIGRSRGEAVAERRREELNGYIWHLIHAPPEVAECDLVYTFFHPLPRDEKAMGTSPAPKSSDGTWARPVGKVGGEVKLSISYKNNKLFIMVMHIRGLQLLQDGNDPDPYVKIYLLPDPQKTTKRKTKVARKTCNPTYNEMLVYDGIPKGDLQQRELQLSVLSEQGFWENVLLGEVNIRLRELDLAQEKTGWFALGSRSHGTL
T2 sequence (O60674 whole entry): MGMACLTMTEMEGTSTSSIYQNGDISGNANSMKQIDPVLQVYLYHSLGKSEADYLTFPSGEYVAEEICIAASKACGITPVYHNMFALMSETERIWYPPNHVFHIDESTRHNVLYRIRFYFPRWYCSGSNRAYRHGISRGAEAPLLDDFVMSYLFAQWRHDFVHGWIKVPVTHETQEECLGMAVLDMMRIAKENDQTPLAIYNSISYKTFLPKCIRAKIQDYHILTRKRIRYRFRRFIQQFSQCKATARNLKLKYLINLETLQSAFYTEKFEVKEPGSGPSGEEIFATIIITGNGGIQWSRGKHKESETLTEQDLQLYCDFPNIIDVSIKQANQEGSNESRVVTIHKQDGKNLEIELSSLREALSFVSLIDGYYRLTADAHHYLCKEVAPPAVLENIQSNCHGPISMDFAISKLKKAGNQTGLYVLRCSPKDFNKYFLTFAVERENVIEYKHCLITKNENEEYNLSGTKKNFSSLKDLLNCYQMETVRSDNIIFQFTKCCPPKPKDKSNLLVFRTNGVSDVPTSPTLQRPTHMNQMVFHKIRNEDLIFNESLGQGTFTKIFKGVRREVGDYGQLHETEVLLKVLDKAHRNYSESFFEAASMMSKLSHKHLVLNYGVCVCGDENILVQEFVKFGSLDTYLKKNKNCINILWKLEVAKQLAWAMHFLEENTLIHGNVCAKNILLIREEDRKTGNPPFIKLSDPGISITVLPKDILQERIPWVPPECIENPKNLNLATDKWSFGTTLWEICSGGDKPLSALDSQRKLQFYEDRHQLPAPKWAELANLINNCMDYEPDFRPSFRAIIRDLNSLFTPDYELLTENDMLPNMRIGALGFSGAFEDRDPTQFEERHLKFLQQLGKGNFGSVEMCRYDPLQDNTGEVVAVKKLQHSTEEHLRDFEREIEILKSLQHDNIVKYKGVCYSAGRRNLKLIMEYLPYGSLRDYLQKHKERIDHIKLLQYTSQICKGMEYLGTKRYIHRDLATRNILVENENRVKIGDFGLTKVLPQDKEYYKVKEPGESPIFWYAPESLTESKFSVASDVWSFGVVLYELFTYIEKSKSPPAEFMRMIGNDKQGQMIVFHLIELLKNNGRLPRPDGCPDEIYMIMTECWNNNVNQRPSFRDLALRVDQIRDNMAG
T19 sequence (Q9BVS4 whole entry): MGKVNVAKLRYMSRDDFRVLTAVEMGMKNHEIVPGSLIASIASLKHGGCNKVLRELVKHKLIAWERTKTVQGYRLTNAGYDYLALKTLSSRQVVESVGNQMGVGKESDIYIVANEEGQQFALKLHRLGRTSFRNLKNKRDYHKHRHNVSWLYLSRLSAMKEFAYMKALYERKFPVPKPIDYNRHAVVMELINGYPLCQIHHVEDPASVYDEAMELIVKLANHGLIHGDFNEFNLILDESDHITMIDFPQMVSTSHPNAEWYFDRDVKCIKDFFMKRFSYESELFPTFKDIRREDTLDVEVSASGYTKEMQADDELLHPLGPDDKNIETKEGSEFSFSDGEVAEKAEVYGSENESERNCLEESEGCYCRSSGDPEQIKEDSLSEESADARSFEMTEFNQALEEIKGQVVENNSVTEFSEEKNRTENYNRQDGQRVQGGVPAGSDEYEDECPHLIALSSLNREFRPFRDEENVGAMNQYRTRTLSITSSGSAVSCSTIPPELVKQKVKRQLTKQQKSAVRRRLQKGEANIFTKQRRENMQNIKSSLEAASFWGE
T4 sequence (P04626 23-1255): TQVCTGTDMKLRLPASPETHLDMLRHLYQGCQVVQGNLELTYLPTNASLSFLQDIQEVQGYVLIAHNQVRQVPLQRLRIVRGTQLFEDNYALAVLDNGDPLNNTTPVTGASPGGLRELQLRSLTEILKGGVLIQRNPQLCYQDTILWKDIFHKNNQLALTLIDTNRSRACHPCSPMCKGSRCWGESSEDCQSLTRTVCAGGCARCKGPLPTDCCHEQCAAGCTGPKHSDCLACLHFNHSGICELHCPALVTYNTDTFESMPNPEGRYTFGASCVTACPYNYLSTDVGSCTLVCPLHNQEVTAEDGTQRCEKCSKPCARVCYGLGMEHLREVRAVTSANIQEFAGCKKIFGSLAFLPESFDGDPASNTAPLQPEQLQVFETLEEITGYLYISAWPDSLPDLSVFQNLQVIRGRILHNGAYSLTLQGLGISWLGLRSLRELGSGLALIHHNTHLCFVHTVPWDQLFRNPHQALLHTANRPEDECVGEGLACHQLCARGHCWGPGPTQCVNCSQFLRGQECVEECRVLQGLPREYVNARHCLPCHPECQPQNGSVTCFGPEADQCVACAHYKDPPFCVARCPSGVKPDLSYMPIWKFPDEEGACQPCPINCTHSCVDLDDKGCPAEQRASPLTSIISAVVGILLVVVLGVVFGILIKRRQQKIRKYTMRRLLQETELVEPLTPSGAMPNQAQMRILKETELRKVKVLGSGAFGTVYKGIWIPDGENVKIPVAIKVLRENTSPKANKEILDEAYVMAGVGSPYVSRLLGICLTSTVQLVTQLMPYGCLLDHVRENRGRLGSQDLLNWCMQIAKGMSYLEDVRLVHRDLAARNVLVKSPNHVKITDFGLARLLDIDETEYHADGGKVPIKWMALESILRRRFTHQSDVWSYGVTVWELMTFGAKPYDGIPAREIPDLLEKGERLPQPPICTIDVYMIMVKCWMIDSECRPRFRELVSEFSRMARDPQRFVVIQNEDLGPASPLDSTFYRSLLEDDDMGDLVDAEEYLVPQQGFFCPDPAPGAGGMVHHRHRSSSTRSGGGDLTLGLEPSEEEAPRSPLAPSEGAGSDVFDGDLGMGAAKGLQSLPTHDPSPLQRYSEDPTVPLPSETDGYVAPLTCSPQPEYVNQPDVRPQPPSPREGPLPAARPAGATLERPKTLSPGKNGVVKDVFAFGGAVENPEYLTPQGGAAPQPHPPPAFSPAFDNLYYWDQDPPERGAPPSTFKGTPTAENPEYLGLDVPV

**Q.** With `CN(C)CCNC(=O)c1ccc(-c2ccc(-c3ccc(Cl)cc3)n2-c2ccccc2C(F)(F)F)cc1` (single isomer, unassigned) [Atropisomer A-2] as the compound, how does the “% Ctrl @ 3 μM” value [1] read?
**A.** Its value is 100 % Ctrl.

**Q.** What about the “% Ctrl @ 3 μM” value [2] of the same compound?
**A.** The value was 80 % Ctrl.

**Q.** And the “% Ctrl @ 3 μM” value [3]?
**A.** Its value is 100 % Ctrl.

**Q.** What about the “% Ctrl @ 3 μM” value [4] of the same compound?
**A.** Its value is 66 % Ctrl.

**Q.** What about the “% Ctrl @ 3 μM” value [5] of the same compound?
**A.** Its value is 100 % Ctrl.

**Q.** What about the “% Ctrl @ 3 μM” value [6] of the same compound?
**A.** Its value is 100 % Ctrl.

**Q.** What about the “% Ctrl @ 3 μM” value [7] of the same compound?
**A.** Its value is 100 % Ctrl.

**Q.** And the “% Ctrl @ 3 μM” value [8]?
**A.** The value was 100 % Ctrl.

**Q.** What about the “% Ctrl @ 3 μM” value [9] of the same compound?
**A.** Its value is 92 % Ctrl.

**Q.** What about the “% Ctrl @ 3 μM” value [10] of the same compound?
**A.** Its value is 100 % Ctrl.

**Q.** And the “% Ctrl @ 3 μM” value [11]?
**A.** Its value is 100 % Ctrl.

**Q.** What about the “% Ctrl @ 3 μM” value [12] of the same compound?
**A.** The value was 100 % Ctrl.

**Q.** And the “% Ctrl @ 3 μM” value [13]?
**A.** The value was 88 % Ctrl.

**Q.** And the “% Ctrl @ 3 μM” value [14]?
**A.** The value was 93 % Ctrl.

**Q.** What about the “% Ctrl @ 3 μM” value [15] of the same compound?
**A.** The value was 84 % Ctrl.

**Q.** And the “% Ctrl @ 3 μM” value [16]?
**A.** The value was 94 % Ctrl.

**Q.** And the “% Ctrl @ 3 μM” value [17]?
**A.** The value was 82 % Ctrl.

**Q.** What about the “% Ctrl @ 3 μM” value [18] of the same compound?
**A.** Its value is 98 % Ctrl.

**Q.** And the “% Ctrl @ 3 μM” value [19]?
**A.** Its value is 100 % Ctrl.

**Q.** And the “% Ctrl @ 3 μM” value [20]?
**A.** The value was 99 % Ctrl.

**Q.** And the “binding activity against panel kinases (% Ctrl)” value ([21]; 3 μM (3000 nM), ninety-seven kinases)?
**A.** Its value is “poor or non-existent binding activity”.

**Q.** And the “% Ctrl @ 3 μM” value ([21]; EGFR)?
**A.** Its value is 100 % Ctrl.

**Q.** And the “% Ctrl @ 3 μM” value ([21]; KIT)?
**A.** The value was 100 % Ctrl.
